The values below come from ChEMBL document CHEMBL2390923, “Synthesis of 7-oxabicyclo[2.2.1]hept-5-en-2-yl derivatives and their screening for antimicrobial and antioxidant properties” (2013).

Converted amounts (≈) assume the structure as drawn.

What all share (format): functional
Experiment [1] deals with Escherichia coli. The experiment is described as follows: Antibacterial activity against Escherichia coli after 18 to 24 hrs by microdilution broth assay. In general terms: In broth dilution the organism is exposed to a series of concentrations in liquid medium.
The subject of experiment [2] is Vibrio cholerae. The experiment can be described thus: Antibacterial activity against Vibrio cholerae after 18 to 24 hrs by microdilution broth assay.
Experiment [3] relates to Klebsiella pneumoniae. The experiment can be described thus: Antibacterial activity against Klebsiella pneumoniae at 100 mg/ml after 24 hrs by well diffusion assay. Conditions: read-out: DIZ. On the technique in general: In agar diffusion tests the substance spreads into inoculated agar from a disc or well.
Experiment [4] deals with Bacillus subtilis. The experiment can be described thus: Antibacterial activity against Bacillus subtilis at 125 mg/ml after 24 hrs by well diffusion assay. To be noted: read-out: DIZ.
For experiment [5], the system named is Bacillus subtilis. The experiment can be described thus: Antibacterial activity against Bacillus subtilis at 150 mg/ml after 24 hrs by well diffusion assay. Conditions: read-out: DIZ.
In experiment [6] the test system is Klebsiella pneumoniae. The experiment can be described thus: Antibacterial activity against Klebsiella pneumoniae at 150 mg/ml after 24 hrs by well diffusion assay. To be noted: read-out: DIZ.
Experiment [7] relates to Bacillus subtilis. The experiment is described as follows: Antibacterial activity against Bacillus subtilis at 100 mg/ml after 24 hrs by well diffusion assay. To be noted: read-out: DIZ.
Experiment [8] relates to Escherichia coli. The experiment can be described thus: Antibacterial activity against Escherichia coli at 125 mg/ml after 24 hrs by well diffusion assay. To be noted: read-out: DIZ.
Experiment [9] deals with Vibrio cholerae. The experiment is described as follows: Antibacterial activity against Vibrio cholerae at 150 mg/ml after 24 hrs by well diffusion assay. Conditions: read-out: DIZ.
The subject of experiment [10] is Klebsiella pneumoniae. The experiment can be described thus: Antibacterial activity against Klebsiella pneumoniae at 125 mg/ml after 24 hrs by well diffusion assay. Conditions: read-out: DIZ.
Experiment [11] concerns Vibrio cholerae. The experiment is described as follows: Antibacterial activity against Vibrio cholerae at 125 mg/ml after 24 hrs by well diffusion assay. To be noted: read-out: DIZ.
The test system of experiment [12] is Escherichia coli. The experiment is described as follows: Antibacterial activity against Escherichia coli at 100 mg/ml after 24 hrs by well diffusion assay. Conditions: read-out: DIZ.
The test system of experiment [13] is Staphylococcus aureus. The experiment can be described thus: Antibacterial activity against Staphylococcus aureus at 150 mg/ml after 24 hrs by well diffusion assay. To be noted: read-out: DIZ.
Experiment [14] deals with Klebsiella pneumoniae. The experiment is described as follows: Antibacterial activity against Klebsiella pneumoniae after 18 to 24 hrs by microdilution broth assay.
The subject of experiment [15] is Staphylococcus aureus. The experiment is described as follows: Antibacterial activity against Staphylococcus aureus after 18 to 24 hrs by microdilution broth assay.
The test system of experiment [16] is Staphylococcus aureus. The experiment is described as follows: Antibacterial activity against Staphylococcus aureus at 125 mg/ml after 24 hrs by well diffusion assay. Conditions: read-out: DIZ.
The test system of experiment [17] is Escherichia coli. The experiment can be described thus: Antibacterial activity against Escherichia coli at 150 mg/ml after 24 hrs by well diffusion assay. To be noted: read-out: DIZ.
Experiment [18] has as its system Staphylococcus aureus. The experiment can be described thus: Antibacterial activity against Staphylococcus aureus at 100 mg/ml after 24 hrs by well diffusion assay. Conditions: read-out: DIZ.
Experiment [19] has as its system Vibrio cholerae. The experiment can be described thus: Antibacterial activity against Vibrio cholerae at 100 mg/ml after 24 hrs by well diffusion assay. To be noted: read-out: DIZ.
Experiment [20] has as its system Radical scavenging activity. The experiment is described as follows: Antioxidant activity assessed as DPPH radical scavenging activity after 30 mins. Also on record: concentration or dose not given beside the values. Background: The DPPH test is a chemical assay of radical scavenging.
Experiment [21] deals with Bacillus subtilis. The experiment is described as follows: Antibacterial activity against Bacillus subtilis after 18 to 24 hrs by microdilution broth assay.

For orientation: MIC means the lowest concentration found to suppress growth. In general, inhibition refers to the percentage by which the read-out fell short of the control. In the case of `CCC12C=CC(O1)C(C(=O)c1ccccc1)C2c1ccccc1Cl` (stereo not given), the MIC was 1250 µg/mL (≈ 3690 µM) in experiment [1]; 625 µg/mL (≈ 1840 µM) in [2]; 625 µg/mL (≈ 1840 µM) in experiment [14]; 1250 µg/mL (≈ 3690 µM) in [15]; 1250 µg/mL (≈ 3690 µM) in experiment [21]. Further, the zone of inhibition at 100000 µg/mL in experiment [3] was 9 mm; in experiment [7], 10 mm; in experiment [12] it was 13 mm; in [18], 12 mm; in [19], 11 mm. Further, the zone of inhibition at 125000 µg/mL was found to be 12 mm in experiment [4]; 14 mm in experiment [8]; 11 mm in experiment [10]; 12 mm in experiment [11]; 15 mm in experiment [16]. Further, the zone of inhibition at 150000 µg/mL in [5] is 13 mm; in experiment [6], 12 mm; in experiment [9], 14 mm; in experiment [13], 16 mm; in [17], 16 mm. Besides, in experiment [20], the inhibition amounted to 22.2%.

For `O=C(O)c1cn(C2CC2)c2cc(N3CCNCC3)c(F)cc2c1=O` [CIPROFLOXACIN], the MIC is 62 µg/mL (≈ 187 µM) in [1]; 15 µg/mL (≈ 45.3 µM) in experiment [2]; 7 µg/mL (≈ 21.1 µM) in experiment [14]; 15 µg/mL (≈ 45.3 µM) in [15]; 125 µg/mL (≈ 377 µM) in experiment [21]. Moreover, the zone of inhibition at 100000 µg/mL in experiment [3] was found to be 23 mm; in [7], 18 mm; in experiment [18], 16 mm; in experiment [19] it was 16 mm. In addition, the zone of inhibition at 125000 µg/mL in [4] is 18 mm; in experiment [10] it was 23 mm; in experiment [11], 16 mm; in experiment [16], 16 mm. Moreover, the zone of inhibition at 150000 µg/mL in experiment [5] was 18 mm; in [6], 23 mm; in experiment [9], 16 mm; in experiment [13], 16 mm.

In the case of `CCC12C=CC(O1)C(C(=O)c1ccccc1)C2c1cccc(F)c1` (stereo not given), the MIC stood at 1250 µg/mL (≈ 3880 µM) in experiment [1]; 625 µg/mL (≈ 1940 µM) in experiment [2]; 312 µg/mL (≈ 968 µM) in [14]; 625 µg/mL (≈ 1940 µM) in experiment [15]; 1250 µg/mL (≈ 3880 µM) in [21]. Further, the zone of inhibition at 150000 µg/mL in [5] was 12 mm; in experiment [6] it was 12 mm; in experiment [9] it was 15 mm; in [13] it was 16 mm; in [17], 12 mm. For the same compound, the zone of inhibition at 125000 µg/mL in [8] amounted to 11 mm; in [10] it was 11 mm; in [11] it was 14 mm; in [16] it was 14 mm. Besides, the zone of inhibition at 100000 µg/mL came to 11 mm in [18] and 12 mm in experiment [19]. Also, in experiment [20], the inhibition came out at 22.3%.
